Measured values taken from US9737493B2, “Compositions and methods for modulating DNMT1 inhibitor activity” (University of Louisville Research Foundation, Inc., priority 2012, dated 2017).

How the values were obtained:
Type in all cases: cell-based, human
A549 cells [1] = experiment: Western blot for PARP-1 and caspase-3 cleavage; conditions: A549, 2 μM XB05
Description: (§1) FIG. 3: XB05 Induces Apoptotic and Nonapoptotic Cell Death in Malignant Cell Lines. (A) Trypan blue exclusion assay for three human cell lines following treatment with XB05 for 72 h at the concentrations indicated. Data points represent the mean+/−SEM for three independent experiments. (B) Representative phase contrast microscopy images of cells treated with vehicle (72 h), XB05 (72 h with 1 μM for U937 and Hs27, or 2 μM for A549), or 6 μg/mL camptothecin (U937 for 6 h, A549 and Hs27 for 48 h). Cells undergoing apoptotic (black arrows) or non-apoptotic (white arrows) cell death are indicated. (C) Whole cell extracts from cells treated with vehicle, camptothecin, or XB05, as described in part B were western blotted for biochemical markers of apoptosis and GAPDH (loading control). […]
(§2) Western Blotting. […] Proteins were detected using the following primary antibody concentrations: PARP-1 (1:1000), cleaved caspase-3 (1:1000), γ-H2AX (Ser139) ([…]), phospho-eIF2α (Ser51) (1:1000), eIF2α (1:1000), Bip (1:1000), Nrf2 (1:1000), Ku-70 (1:1000) and GAPDH (1:1000). […] Where indicated, band intensities were quantified using the UN-SCAN-IT Gel digitizing software (Silk Scientific, Orem Utah) and normalized to vehicle control.

U937 cells [2] = experiment: Western blot for PARP-1 and caspase-3 cleavage; conditions: U937, 1 μM XB05
Description: as §1, §2

A549 cells [3] = experiment: Western blot for Nrf2 in nuclear extracts; conditions: A549, 2 μM, 8 or 24 h
Description: (§3) FIG. 8: XB05 Modulates Cellular Stress Responses. (A) A luminescence-based assay for reduced glutathione (GSH) content in cells treated 24 h with XB05 (1 μM for U937 and Hs27, or 2 μM for A549), in the absence or presence of 5 mM GSH. Some cells were treated with buthionine sulfoximine (BSO, 200 μM) plus diethyl maleate (DEM, 1 mM) for 3 h as a positive control for GSH depletion. Bar graph indicates mean+/−SEM from three independent experiments. […] (C) Western blot for Nrf2 in nuclear extracts from cells treated as in part A for either 8 h or 24 h. Membranes were stripped and reprobed for Ku-70 as a loading control. (D) Western blot for phospho-eIF2α (Ser51), total eIF2-α, BiP/Grp78, and GAPDH (loading control) in whole cell extracts from cell lines treated as indicated for 24 h with concentrations of XB05 described in part A. Thapsigargin (TG, 2 μM) was used as a positive control for induction of endoplasmic reticulum (ER) stress.
(§4) Cell Extracts. […] Nuclear cells extracts were isolated using the NE-PER Nuclear and Cytoplasmic Extraction Kit (Thermo Scientific, Rockford, Ill.), per the manufacturer's protocol. For total cell extract, cells were lysed in RIPA buffer (Thermo Scientific) containing protease inhibitor cocktail III and phosphatase inhibitor cocktail (Calbiochem, Billerica, Mass.) for 5 min at 4° C., and then cleared by centrifugation at 16,000 g for 10 min at 4° C. All protein concentrations were determined using the DC Protein Assay™ kit (BioRad, Hercules, Calif.).
as §2

U937 cells [4] = experiment: Western blot for Nrf2 in nuclear extracts; conditions: U937, 1 μM, 8 or 24 h
Description: as §3, §4, §2

Hs27 cells = experiment: Western blot for Nrf2 in nuclear extracts; conditions: Hs27, 1 μM, 8 or 24 h
Description: as §3, §4, §2

## CCCCCC(O)C#CC(F)(F)Br (centres unmarked) [XB05]
A549 cells [1]
  time at which PARP-1 and caspase-3 cleavage were apparent: 48 h
U937 cells [2]
  time at which PARP-1 and caspase-3 cleavage were apparent: ≤ 24 h
A549 cells [3]
  nuclear Nrf2: slight increase in nuclear levels of Nrf2
U937 cells [4]
  nuclear Nrf2: decrease in nuclear Nrf2
Hs27 cells
  nuclear Nrf2: no change
